Assay results taken from patent publication US20040127396A1, “Use of furin and furin-like protease inhibitors in the treatment of inflammatory or matrix remodelling diseases” (priority 2000, published 2004).

Columns and labels:
[1] = test system: proprotein convertases including furin, PC6B, PC3, PC2, PACE-4 and PC7; settings: cited from earlier work
[2] = test system: TNFα release from MonoMac-1 cells; assay: TNFα release from LPS/PMA-stimulated MonoMac-1 cells (ELISA); type: cell-based, human; settings: 22 hrs preincubation, then LPS and PMA 3 hours, FIG. 5D
Protocol: To investigate whether the levels of TACE maturation observed in LoVo transfectants impacts TACE-related activities, we first measured cell-surface p75 TNF receptor expression as a marker for TACE cell-surface activity. Briefly, LoVo NEO and LoVo FUR2 cell samples were labeled with anti-TACE or anti-TNF p75 receptor antibodies (Catlag laboratories, Burlingame, Calif.) and cell fluorescence was analyzed on a FACScan (Becton Dickinson). […] Next, we measured the ability of Dec-RVKR-CH2Cl to block TNFα release from MonoMac-1 cells, a human monocytic cell line known to produce high levels of this cytokine (50). For this, MonoMac-1 cells were preincubated for 22 hrs with varying concentrations of Dec-RVKR-CH2Cl, then 500 ng/ml LPS and 100 ng/ml PMA were added. After 3 hours incubation with PMA and LPS, the supernatants were tested for TNF-α production using a TNF-α-specific ELISA assay (R&D Systems, Minneapolis, Minn.).

[3] = test system: TACE maturation in LoVo NEO cells; assay: TACE maturation in LoVo NEO cells by Western blotting; type: cell-based, human; settings: 24 hrs, various concentrations, FIG. 5B
Text: To assess the involvement of furin in TACE endoproteolytic processing, applicant first used a furin-deficient cell line, the LoVo cells. These are human colon carcinoma cells which have a point mutation in both alleles of the fur gene leading to production of a defective enzyme (reference 46). These furin knock-out cells have been extensively used to study the contribution of furin in a cellular context (references 10, 38 and 47). LoVo cells were transfected with wild type furin and two stable transfectants LoVoFUR1 and LoVoFUR2 and control transfectant LoVoNEO have been generated accordingly to their acquired gentamycin resistance. Cell lysates were assessed by Western blotting for the production of TACE proteolytic fragments in immunoblotting using TACE-specific antibodies (Chemicon International, CA). […]
To define if proprotein convertases other than furin are involved in TACE maturation, LoVo NEO cells were incubated for 24 hrs in the presence of Dec-RVKR-CH2Cl, a synthetic peptide that mimics proprotein recognition site. […] LoVo NEO cells were incubated for 24 hrs in the presence of various concentrations of Dec-RVKR-CH2Cl, and cell lysates were assessed for TACE maturation by Western blotting as described above.

In the case of Dec-RVKR-CH2Cl, the “inhibition of enzymatic activity of proprotein convertases” value [1] is given as “efficiently inhibit”, the TNFα released [2] is given as “blocked almost completely” and the TACE maturation [3] is given as “further inhibition of TACE maturation”.
